Experimental data reported in ChEMBL document CHEMBL5726571, “5-hydroxytryptamine receptor 7 activity modulators and their method of use” (2017).

The compounds below were run against 5-hydroxytryptamine receptor 7 (Homo sapiens, UniProt P34969) (assay: Radiolabel Binding Assay: A stock concentration of 5 nM [3H]LSD (lysergic acid diethyl amide) is prepared in 50 mM Tris-HCl, 10 mM MgCl2, 1 mM EDTA, pH 7.4 (Assay Buffer). Aliquots (50 μl) of radioligand are dispensed into the wells of a 96-well plate containing 100 μl of Assay Buffer. Duplicate 50-μl aliquots of the compound of the disclosure test and chlorpromazine positive control reference compound serial dilutions are added.Membrane fractions of cells expressing recombinant 5HT7 receptors (50 μL) are dispensed into each well. The membranes are prepared from stably tranfected cell lines expressing 5HT7 receptors cultured on 10-cm plates by harvesting PBS-rinsed monolayers, resuspending and lysing in chilled, hypotonic 50 mM Tris-HCl, pH 7.4, centrifuging at 20,000×g, decanting the supernatant and storing at −80° C.; the membrane preparations are resuspended in 3 ml of chilled Assay Buffer and homogenized by several passages through a 26 gauge needle before using in the assay.).
Chain of 5-hydroxytryptamine receptor 7 (P34969 whole entry): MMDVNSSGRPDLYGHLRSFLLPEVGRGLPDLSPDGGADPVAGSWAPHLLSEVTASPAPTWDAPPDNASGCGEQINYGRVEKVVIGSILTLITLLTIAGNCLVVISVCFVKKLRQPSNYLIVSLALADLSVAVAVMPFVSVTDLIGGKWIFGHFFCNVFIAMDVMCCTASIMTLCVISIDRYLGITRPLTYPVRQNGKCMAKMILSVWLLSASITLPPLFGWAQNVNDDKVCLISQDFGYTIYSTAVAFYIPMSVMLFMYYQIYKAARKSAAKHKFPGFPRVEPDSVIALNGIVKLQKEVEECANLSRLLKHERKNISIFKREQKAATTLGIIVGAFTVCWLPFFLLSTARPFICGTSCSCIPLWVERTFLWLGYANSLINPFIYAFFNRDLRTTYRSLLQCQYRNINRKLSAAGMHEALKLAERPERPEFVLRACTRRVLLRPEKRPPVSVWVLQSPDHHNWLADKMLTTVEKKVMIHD

Row | Structure (SMILES) | IC50
1 | CCC1(CC)CC(CCN2CCN(c3ccc([N+](=O)[O-])cc3)CC2)OC1=O (stereo not drawn) | 54 nM
2 | CCC1(CC)CC(CCN2CCN(c3ccccc3C)CC2)OC1=O (stereo not drawn) | 104 nM
3 | CCC1(CC)CC(CCN2CCN(C(c3ccccc3)c3ccccc3)CC2)OC1=O (stereo not drawn) | 83 nM
4 | O=C1OC(CCN2CCN(c3cccnc3)CC2)CC12CCCCC2 (stereo not drawn) | 749 nM
5 | CCC1(CC)CC(CCN2CCN(c3ccc(N)cc3)CC2)OC1=O (stereo not drawn) | 471 nM
6 | CCC1(CC)CC(CCN2CCN(c3cccc(OC)c3)CC2)OC1=O (stereo not drawn) | 165 nM
7 | CCC1(CC)CC(CCN2CCN(c3ccccc3O)CC2)OC1=O (stereo not drawn) | 156 nM
8 | O=C1OC(CCN2CCN(c3ccc(C(F)(F)F)cn3)CC2)CC12CCCCC2 (stereo not drawn) | 254 nM
9 | O=C1OC(CCN2CCN(c3ccc(C(F)(F)F)cc3)CC2)CC12CCCCC2 (stereo not drawn) | 183 nM
10 | COc1cccc(N2CCN(CCC3CC4(CCCCC4)C(=O)O3)CC2)c1 (stereo not drawn) | 56 nM
11 | CCC1(CC)CC(CCN2CCN(C3CCCCC3)CC2)OC1=O (stereo not drawn) | 3760 nM
12 | Cc1ccc(N2CCN(CCC3CC(c4ccccc4)(c4ccccc4)C(=O)O3)CC2)cc1 (stereo not drawn) | 145 nM
13 | COc1ccccc1N1CCN(CCC2CC3(CCCCC3)C(=O)O2)CC1 (stereo not drawn) | 72 nM
14 | CCC1(CC)CC(CCN2CCN(c3ccc(C#N)cc3)CC2)OC1=O (stereo not drawn) | 134 nM
15 | CCC1(CC)CC(CCN2CCN(c3ccc(C(O)(c4ccccc4)c4ccccc4)cc3)CC2)OC1=O (stereo not drawn) | 3160 nM
16 | CCC1(CC)CC(CCN2CCN(c3ccc(O)cc3)CC2)OC1=O (stereo not drawn) | 89 nM
17 | CCC1(CC)CC(CCN2CCN(c3ccccc3OC)CC2)OC1=O (stereo not drawn) | 118 nM
18 | O=C1OC(CCN2CCN(c3ccccc3)CC2)CC12CCCCC2 (stereo not drawn) | 33 nM
19 | CCC1(CC)CC(CCN2CCN(c3c(C)cccc3C)CC2)OC1=O (stereo not drawn) | 1380 nM
20 | CCC1(CC)CC(CCN2CCN(c3cccc(O)c3)CC2)OC1=O (stereo not drawn) | 324 nM
21 | CC(C)c1ccccc1N1CCN(CCC2CC3(CCCC3)C(=O)O2)CC1 (stereo not drawn) | 24 nM
22 | CC(C)(C)c1ccccc1N1CCN(CCC2CC3(CCCC3)C(=O)O2)CC1 (stereo not drawn) | 1920 nM
23 | CCC1(CC)CC(CCN2CCN(c3ccccc3)CC2)OC1=O (stereo not drawn) | 21 nM
24 | Cc1ccc(N2CCN(CCCC3CC(c4ccccc4)(c4ccccc4)C(=O)O3)CC2)cc1 (stereo not drawn) | 146 nM
25 | CCC1(CC)CC(CCN2CCN(c3ccc(C)cc3C)CC2)OC1=O (stereo not drawn) | 363 nM
26 | O=C1OC(CCN2CCN(c3ccccn3)CC2)CC12CCCCC2 (stereo not drawn) | 44 nM
27 | CCC1(CC)CC(CCN2CCc3ccccc3C2)OC1=O (stereo not drawn) | 13 nM
28 | N#Cc1ccc(N2CCN(CCC3CC4(CCCCC4)C(=O)O3)CC2)nc1 (stereo not drawn) | 1520 nM
